Reference: article PMC4201977 (Journal of immunology (Baltimore, Md. : 1950), 2014)
Ends that are not written are not given here.

What was measured:
monocyte-derived DCs = assay: Proteolytic activities in live DCs upon TLR ligand maturation; type: cell-based, human
[1] = Cytosolic stability of optimal epitopes in iMP extracts; type: in vitro ADME; settings: human, iMP cytosolic extract, pH 7.4
[2] = Cytosolic stability of optimal epitopes in iDC extracts; type: in vitro ADME; settings: human, iDC cytosolic extract, pH 7.4
[3] = 24h post stimulation, maturing over immature cells, n=2 donors

Molecule	change of aminopeptidases hydrolytic activities in maturing DCs (monocyte-derived DCs; 5h, 24h, 48h post stimulation)	change of chymotryptic activities in maturing DCs (monocyte-derived DCs; 5h, 24h, 48h post stimulation)	decrease of proteasomal caspase-like activity in maturing DCs (monocyte-derived DCs; [3]) [%]	decrease of proteasomal tryptic activity in maturing DCs (monocyte-derived DCs; [3]) [%]	half-life [1] [min]	half-life [2] [min]
CCOCc1nc2c([nH]1)c(N)nc1ccccc12 [CL097]	unchanged	not affected	30	30		
CC[C@H](C)[C@H](NC(=O)[C@@H](NC(=O)[C@H](CCC(=O)O)NC(=O)[C@@H]1CCCN1C(=O)[C@H](CO)NC(=O)[C@H](Cc1ccccc1)NC(=O)[C@H](C)NC(=O)[C@@H](N)CCCCN)C(C)C)C(=O)N1CCC[C@H]1C(=O)N[C@@H](CCSC)C(=O)N[C@@H](Cc1ccccc1)C(=O)O [KF11]					20.4	22.1
ISPRTLNAW [ISW9]					9.4	7
